From patent US20020026053A1, “Novel 3-(substituted) -2- indolinones compounds and use thereof as inhibitors of protein kinase activity” (priority 1997, published 2002)
“And” between values parts separate entries of the source, which are not always exact repeats. Identical values can stand only once. Like-named read-outs stand apart in the source and are kept apart here.

Tests used:
FLK-1 receptor = experiment: FLK-1 Assay (cellular/catalytic ELISA, VEGF-stimulated phosphotyrosine); format: cell-based; set-up: concentration or dose not given beside the values
Summary of the method: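 NIH3T3 C7#3 cells engineered to express Flk-1 were serum-starved overnight (0.1% FBS), then exposed to compound for 2 h at 37 °C (final dilution 1:200, 0.5% DMSO) before VEGF stimulation. Lysates captured on anti-FLK-1 antiserum plates; phosphotyrosine detected by UB40 antibody/POD-ABTS ELISA versus untreated controls.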

PDGF-R = PDGF-R Assay (cellular ELISA, U1242 cells); format: cell-based; set-up: concentration or dose not given beside the values
Summary of the method: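 U1242 cells seeded in 0.5% serum, serum-starved, then exposed to compound for 2 hr at 37°C before 5–10 min ligand stimulation and lysis in HNTG. Lysate captured on receptor-antibody-coated plates; phosphotyrosine detected with polyclonal anti-pTyr, goat anti-rabbit IgG and ABTS/H2O2, A410 (ref 630 nm), versus untreated cells.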

Row | Compound | Flk Kinase % Inhibition (P.110) (FLK-1 receptor) [%] | PDGF Kinase % Inhibition (P.119) (PDGF-R) [%] | Flk Kinase % Inhibition (P.110) (FLK-1 receptor; protocol P.110)
1 | CCOc1ccccc1C=C1C(=O)Nc2c(Br)cc(Br)c(C)c21 [10717/H02] | 4.0 | – | –
2 | Cc1c(Br)cc(Br)c2c1C(=Cc1cccs1)C(=O)N2 [10717/H03] | 8.6 | – | –
3 | Cc1c(Br)cc(Br)c2c1C(=Cc1cccn1C)C(=O)N2 [10717/H04] | 0.4 | – | –
4 | COc1ccc(C=C2C(=O)Nc3c(Br)cc(Br)c(C)c32)cc1OC [10720/H04] | −5.8 | – | –
5 | Cc1c(Br)cc(Br)c2c1C(=Cc1ccccc1O)C(=O)N2 [10720/H05] | −12.3 | – | –
6 | Cc1c(Br)cc(Br)c2c1C(=Cc1ccccc1)C(=O)N2 [10720/H06] | 22.3 | – | –
7 | CSc1ccc(C=C2C(=O)Nc3c(Br)cc(Br)c(C)c32)s1 [10720/H07] | −2.9 | – | –
8 | Cc1cc(O)cc(O)c1C=C1C(=O)Nc2c(Br)cc(Br)c(C)c21 [10720/H08] | −23.7 | – | –
9 | CCOc1cc(C=C2C(=O)Nc3c(Br)cc(Br)c(C)c32)ccc1O [10720/H09] | −4.5 | – | –
10 | COc1ccc(O)c(C=C2C(=O)Nc3c(Br)cc(Br)c(C)c32)c1 [10720/H10] | −22.8 | – | –
11 | Cc1c(Br)cc(Br)c2c1C(=Cc1ncc[nH]1)C(=O)N2 [10720/H11] | −8.8 | – | –
12 | Cc1c(Br)cc(Br)c2c1C(=Cc1nc3ccccc3n1C)C(=O)N2 [10721/H02] | 5.5 | – | –
13 | Cc1c(Br)cc(Br)c2c1C(=Cc1nn(C)cc1Cl)C(=O)N2 [10721/H03] | 7.8 | – | –
14 | Cc1cc(C=C2C(=O)Nc3c(Br)cc(Br)c(C)c32)sc1C [10721/H04] | 0.7 | – | –
15 | Cc1c(Br)cc(Br)c2c1C(=Cc1cc3c([nH]1)CCCC3)C(=O)N2 [10721/H05] | −8.4 | – | –
16 | Cc1c(Br)cc(Br)c2c1C(=Cc1cc([N+](=O)[O-])cc(CCl)c1O)C(=O)N2 [10721/H06] | −7.9 | – | –
17 | Cc1c(Br)cc(Br)c2c1C(=Cc1ccc(Cl)s1)C(=O)N2 [10721/H07] | −7.0 | – | –
18 | Cc1cc(C)c(C=C2C(=O)Nc3c(Br)cc(Br)c(C)c32)[nH]1 [10721/H08] | −6.8 | – | –
19 | Cc1c(Br)cc(Br)c2c1C(=Cc1ccc(O)c(C(C)(C)C)c1)C(=O)N2 [10721/H09] | 7.0 | – | –
20 | Cc1c(Br)cc(Br)c2c1C(=Cc1cc(Br)c(O)c(C(C)(C)C)c1)C(=O)N2 [10721/H10] | 10.2 | – | –
21 | Cc1c(Br)cc(Br)c2c1C(=Cc1cc(C(C)(C)C)c(O)c(C(C)(C)C)c1)C(=O)N2 [10721/H11] | −6.0 | – | –
22 | Cc1c(Br)cc(Br)c2c1C(=Cc1cc([N+](=O)[O-])c(O)c(C(C)(C)C)c1)C(=O)N2 [10722/H02] | 4.2 | 19.2 | –

Row | Compound | Flk Kinase % Inhibition (P.110) (FLK-1 receptor) [%] | PDGF Kinase % Inhibition (P.119) (PDGF-R) [%] | Flk Kinase % Inhibition (P.110) (FLK-1 receptor; protocol P.110)
23 | Cc1c(Br)cc(Br)c2c1C(=Cc1c(O)cc(O)cc1O)C(=O)N2 [10722/H03] | 2.1 | 26.6 | –
24 | Cc1c(Br)cc(Br)c2c1C(=Cc1ccc([N+](=O)[O-])s1)C(=O)N2 [10722/H04] | 3.8 | −26.1 | –
25 | Cc1c(Br)cc(Br)c2c1C(=Cc1ccc(C(=O)O)cc1)C(=O)N2 [10722/H05] | 4.3 | 0.9 | –
26 | Cc1c(Br)cc(Br)c2c1C(=Cc1ccc(F)cc1F)C(=O)N2 [10722/H06] | 18.9 | 18.6 | –
27 | Cc1cc(C=C2C(=O)Nc3c(Br)cc(Br)c(C)c32)cc(C)c1O [10722/H07] | 2.3 | −16.9 | –
28 | Cc1c(Br)cc(Br)c2c1C(=Cc1cc(Cl)c(O)c(C(C)(C)C)c1)C(=O)N2 [10722/H08] | −20.3 | −15.2 | –
29 | Cc1c(Br)cc(Br)c2c1C(=Cc1csc([N+](=O)[O-])c1)C(=O)N2 [10722/H09] | 3.3 | 17.5 | –
30 | CCCCN(CCCC)c1ccc(C=C2C(=O)Nc3c(Br)cc(Br)c(C)c32)cc1 [10722/H10] | −14.1 | 7.2 | –
31 | Cc1c(Br)cc(Br)c2c1C(=Cc1ccc(C(F)(F)F)cc1)C(=O)N2 [10722/H11] | −3.3 | 15.7 | –
32 | Cc1c(Br)cc(Br)c2c1C(=Cc1ccc(O)c(O)c1O)C(=O)N2 [10723/H02] | 9.0 | 20.7 | –
33 | COc1cccc(C=C2C(=O)Nc3c(Br)cc(Br)c(C)c32)c1O [10723/H03] | 6.1 | −30.6 | –
34 | Cc1c(Br)cc(Br)c2c1C(=Cc1cc(O)c(O)c(Br)c1)C(=O)N2 [10723/H04] | −20.2 | 53.3 | –
35 | CC(=O)Oc1ccc(C=C2C(=O)Nc3c(Br)cc(Br)c(C)c32)cc1OC(C)=O [10723/H05] | −2.5 | −12.6 | –
36 | Cc1cc(C=C2C(=O)Nc3c(Br)cc(Br)c(C)c32)ccc1O [10723/H06] | 10.6 | −17.4 | –
37 | Cc1c(Br)cc(Br)c2c1C(=Cc1ccccc1Br)C(=O)N2 [10723/H07] | 5.0 | −20.9 | –
38 | Cc1c(Br)cc(Br)c2c1C(=Cc1ccc(O)cc1O)C(=O)N2 [10723/H08] | −4.2 | 4.1 | –
39 | COc1ccc(C=C2C(=O)Nc3c(Br)cc(Br)c(C)c32)c(O)c1 [10723/H09] | −0.4 | 15.9 | –
40 | Cc1c(Br)cc(Br)c2c1C(=Cc1cccc(Br)c1)C(=O)N2 [10723/H10] | −13.4 | −22.3 | –
41 | Cc1c(Br)cc(Br)c2c1C(=Cc1cc(C(C)(C)C)cc(C(C)(C)C)c1O)C(=O)N2 [10723/H11] | −5.1 | 29.7 | –
42 | Cc1c(Br)cc(Br)c2c1C(=Cc1ccc(N(C)C)c3ccccc13)C(=O)N2 [10724/H02] | 11.5 | 2.2 | –
43 | Cc1c(Br)cc(Br)c2c1C(=Cc1ccc(O)c([N+](=O)[O-])c1)C(=O)N2 [10724/H03] | 1.8 | −7.6 | –
44 | Cc1ccc(C=C2C(=O)Nc3ccc(CCCl)cc32)cc1 [10736/G05] | – | – | 2.3% and 5.9%
